Test results: patent publication US9896443B2, “Perforin inhibiting benzenesulfonamide compounds, preparation and uses thereof” (Peter MacCallum Cancer Institute, priority 2012, dated 2018)
Where a name gives a salt, the structure may show the parent alone.

Legend:
[1] = system: NK and perforin-mediated bone marrow rejection; test: In vivo inhibition of perforin-mediated bone marrow rejection; set-up: species or system C57Bl/6 mice; settings: 120 mg/kg intra-peritoneal once daily day -2 to day +1; Balb/c bone marrow transplant; blood day +1
Experimental: In Vivo Inhibition of Perforin-Mediated Bone Marrow Rejection.
On day 0 mice received 12×106 Balb/c (CD45.2+) CFSE labelled bone marrow as well as 12×106 B6.PTP (CD45.1+) bone marrow. On day +1 blood was collected for in vivo cytotoxicity assays looking at the ratio of recipient (CD45.1+) versus donor cells (CFSE+) (FIG. 1). Results are illustrated in FIG. 2 as two experiments combined with n=6, 10, 10, 4 and 3/group. […] Statistically significant differences were calculated using two-tailed t tests between groups.

[2] = system: KHYG-1 NK cell-mediated lysis of K562 cells; test: Inhibition of KHYG-1 NK cell-mediated lysis of K562 cells (51Cr release); assay type: cell-based; settings: K562 target cells, Effector:Target 2:1, 4 hours at 37° C.
Outline: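 KHYG-1 effector cells pretreated with compound (up to 20 µM) for 20 min at RT. 51Cr-labelled K562 targets were then added at effector:target 2:1 and incubated 4 h at 37 °C. 51Cr release was gamma-counted and expressed as % specific cytotoxicity.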

recombinant perforin = recombinant perforin (UniProt P10820); assay type: cell-based; settings: lysis of Jurkat T lymphoma cells by recombinant perforin, 0.1% BSA, 30 min pre-incubation, 4 hours at 37° C.; read-out: Jurkat IC50
recombinant perforin, sequence (P10820 whole entry): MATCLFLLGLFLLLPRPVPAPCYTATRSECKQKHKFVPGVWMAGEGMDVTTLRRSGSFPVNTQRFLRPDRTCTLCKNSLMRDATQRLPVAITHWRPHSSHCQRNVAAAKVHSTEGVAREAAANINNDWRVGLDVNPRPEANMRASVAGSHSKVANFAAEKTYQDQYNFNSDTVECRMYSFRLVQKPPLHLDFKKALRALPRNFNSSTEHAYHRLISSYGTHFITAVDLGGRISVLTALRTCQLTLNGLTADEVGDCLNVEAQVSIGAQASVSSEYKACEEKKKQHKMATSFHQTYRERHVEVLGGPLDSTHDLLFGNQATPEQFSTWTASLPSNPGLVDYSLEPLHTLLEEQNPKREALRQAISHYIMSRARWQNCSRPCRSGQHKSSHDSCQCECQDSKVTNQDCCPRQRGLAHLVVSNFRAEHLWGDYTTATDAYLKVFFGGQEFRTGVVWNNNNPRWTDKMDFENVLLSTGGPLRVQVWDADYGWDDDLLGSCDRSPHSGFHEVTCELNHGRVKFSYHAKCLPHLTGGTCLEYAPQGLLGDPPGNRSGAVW
Outline: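 Jurkat T lymphoma cells labelled with 51Cr for 1 h, washed, then exposed to recombinant perforin with compound in RPMI plus 0.1% BSA. Lysis measured as 51Cr release. IC50 from a concentration range run in triplicate.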

Row | Compound | inhibition of NK and perforin-mediated bone marrow rejection [1] | Inhibition of KHYG-1 at 20 μM (%) ([2]; sodium salt, 20 µM) | inhibition at 20 µM ([2]; 4 h) | melting point | IC50 (recombinant perforin) | inhibition at 20 µM [2]
1 | CN1Cc2cc(-c3ccc(-c4cncc(NS(=O)(=O)c5ccc(F)cc5F)c4)s3)ccc2C1=O [Compound 1.Na, 2,4-Difluoro-N-(5-(5-(2-methyl-1-oxoisoindolin-5-yl)thiophen-2-yl)pyridin-3-yl)benzenesulfonamide, sodium salt] | able to inhibit NK and perforin-mediated bone marrow rejection | 48% | – | – | – | –
2 | CN1Cc2cc(-c3ccc(-c4cncc(NS(=O)(=O)c5ccccc5Cl)c4)s3)ccc2C1=O [Compound 9, 2-Chloro-N-(5-(5-(2-methyl-1-oxoisoindolin-5-yl)thiophen-2-yl)pyridin-3-yl)benzenesulfonamide] | – | – | 47% | 299 to 303 °C | 4.01 µM | –
3 | CN1Cc2cc(-c3ccc(-c4cncc(NS(=O)(=O)c5ccc(Br)cc5)c4)s3)ccc2C1=O [Compound 17, 4-Bromo-N-(5-(5-(2-methyl-1-oxoisoindolin-5-yl)thiophen-2-yl)pyridin-3-yl)benzenesulfonamide] | – | – | 6% | 276 to 279 °C | 8.77 µM | –
4 | COc1ccc(S(=O)(=O)Nc2cncc(-c3ccc(-c4ccc5c(c4)CN(C)C5=O)s3)c2)cc1 [Compound 20, 4-Methoxy-N-(5-(5-(2-methyl-1-oxoisoindolin-5-yl)thiophen-2-yl)pyridin-3-yl)benzenesulfonamide] | – | – | 24% | 254 to 258 °C | 6.27 µM | –
5 | CCCCn1cc(C(C)=O)c2cc(-c3ccc(-c4cncc(NS(=O)(=O)c5ccc(F)cc5F)c4)s3)ccc21 [Compound 58, N-(5-(5-(3-Acetyl-1-butyl-1H-indol-5-yl)thiophen-2-yl)pyridin-3-yl)-2,4-difluorobenzenesulfonamide] | – | – | – | 188 to 191 °C | 5.5 µM | 64%
6 | CN1Cc2cc(-c3ccc(-c4cncc(NS(=O)(=O)c5ccccn5)c4)s3)ccc2C1=O [Compound 31, N-(5-(5-(2-Methyl-1-oxoisoindolin-5-yl)thiophen-2-yl)pyridin-3-yl)pyridine-2-sulfonamide] | – | – | 19% | 272 to 275 °C | 0.74 µM | –
7 | Cc1ccc(NS(=O)(=O)c2ccccn2)cc1-c1ccc(-c2ccc3c(c2)CN(C)C3=O)s1 [Compound 60, N-(4-Methyl-3-(5-(2-methyl-1-oxoisoindolin-5-yl)thiophen-2-yl)phenyl)pyridine-2-sulfonamide] | – | – | 17% | 274 to 277 °C | 15.4 µM | –
8 | CN1Cc2cc(-c3ccc(-c4cncc(NS(=O)(=O)c5ccccc5F)c4)s3)ccc2C1=O [Compound 4, 2-Fluoro-N-(5-(5-(2-methyl-1-oxoisoindolin-5-yl)thiophen-2-yl)pyridin-3-yl)benzene-sulfonamide] | – | – | 40% | 289 to 292 °C | 2.03 µM | –
9 | CN1Cc2cc(-c3ccc(-c4cncc(NS(=O)(=O)c5cccc(Cl)c5)c4)s3)ccc2C1=O [Compound 10, 3-Chloro-N-(5-(5-(2-methyl-1-oxoisoindolin-5-yl)thiophen-2-yl)pyridin-3-yl)benzenesulfonamide] | – | – | 31% | 291 to 295 °C | 2.42 µM | –
10 | CN1Cc2cc(-c3ccc(-c4ccnc(NS(=O)(=O)c5ccc(F)cc5F)c4)s3)ccc2C1=O [Compound 41, 2,4-Difluoro-N-(4-(5-(2-methyl-1-oxoisoindolin-5-yl)thiophen-2-yl)pyridin-2-yl)benzenesulfonamide] | – | – | 14% | 235 to 239 °C | 4.7 µM | –
11 | COc1ncc(-c2ccc(-c3ccc4c(c3)CN(C)C4=O)s2)cc1NS(=O)(=O)c1ccc(F)cc1F [Compound 37, 2,4-Difluoro-N-(2-methoxy-5-(5-(2-methyl-1-oxoisoindolin-5-yl)thiophen-2-yl)pyridin-3-yl)benzenesulphonamide] | – | – | 36% | 224 to 227 °C | 3.56 µM | –
